Laboratory results: ChEMBL document CHEMBL3430912, “GSK Tres Cantos Anti-Kinetoplastid Screening (TCAKS) Data”

Assays:
[1] = GSK_TCAKS: pIC50 HepG2 human cell line viability assay using luminiscence. […] Seeding density was checked to ensure that new mono-layers were not more than 50% confluent at the time of harvesting. Cell suspension was added to 500 mL of the same medium at a final density of 1.2 * 10^5 cells/mL. This cell suspension was dispensed (25 uL, 3000 cells per well) into 384-well clear-bottom plates using a Multidrop Combi dispenser. Prior to addition of the cell suspension, the screening compounds (250 nL) were pre-dispensed into the plates with an Echo liquid handler. Plates were incubated for 48 h at 37C, 5% CO2. After incubation, plates equilibrated at room temperature for 30 min before proceeding to develop the luminescent signal. The signal developer, CellTiter-Glo Reagent, was allowed to equilibrate at room temperature for 30 min and added to the plates (25uL per well) using a Multidrop Combi dispenser. Plates were left for 10 min at room temperature for stabilization and then read using a ViewLux.; type: toxicity, cell-based
Leishmania donovani [2] = assay: (§1) GSK_TCAKS: pIC50 Leishmania donovani Imaging: THP-1 Host Macrophages. Assay plates (384-well) were prepared by adding 250nL of compound to each well. For single shot assay, the final compound concentration was 5 uM. […] Automated image analysis was performed with a script developed on Acapella High Content Imaging and Analysis Software (PerkinElmer). Output: THP-1 cell count were reported for each well.; type: functional, organism-based, Homo sapiens
Leishmania donovani [3] = assay: as §1, with “Amastigotes/Macrophages.” for “THP-1 Host Macrophages.”, “Average number of amastigotes per macrophage” for “THP-1”, “cell” for “cell count”; type: functional, organism-based, Homo sapiens; conditions: THP-1
Trypanosoma cruzi [4] = assay: (§2) GSK_TCAKS: pIC50 H2C9 Imaging: H9c2 Host Cardiomyocytes. […] Cells were then washed once with PBS before infection. T. cruzi trypomastigotes, collected at days 5 to 8 after infection from LLC-MK2 parasite infected cultures, were allowed to swim out for 4h at 37C from a centrifuged pellet (2,500 rpm/10 min/room temperature). Trypomastigotes were then collected and counted in a CASY Cell Counter. Trypomastigotes, in supplemented DMEM, were added to H9c2 cultures in a multiplicity of infection of 1 and incubated for 18 h. Cells were washed once with PBS before incubation of the infected H9c2 monolayer with trypsin (Life-Technologies) to detach cells from the flask. Cells were counted in a CASY Cell Counter using a 150 um capillary and their density set at 5 * 10^4 cells per mL in supplemented assay DMEM. Infected H9c2 were dispensed into 384-well poly-lysine coated assay plates at 50uL per well using a Multidrop Combi dispenser. After seeding them, the plates were incubated at 37C, 5% CO2 for 72h. Cultures were then fixed and stained by addition of 50 uL of a solution containing 8% formaldehyde and 4 uM DRAQ5 DNA dye (BioStatus, UK) per well. […] Five images were collected per well for reliable statistical analysis. Automated image analysis was performed with a script developed on Acapella High Content Imaging and Analysis Software (PerkinElmer). Output: Number of H9c2 Host Cardiomyocytes nuclei to determine drug-related cytotoxicity.; type: functional, organism-based, Rattus norvegicus; conditions: H9c2, 4 h
Trypanosoma cruzi [5] = assay: GSK_TCAKS: pIC50 Trypanosoma cruzi viability assay using beta-GAL activity. This assay was run at single shot at 5uM compound concentration per well. The biological reagents consisted of NIH-3T3 host cells and trypomastigotes parasitic cells; both cell types were set to a 3.3 * 10^5 cells/mL dilution in assay DMEM by means of a CASY cell counter device using a 60um capillary. 6 uL of the mixture were dispensed per well (about 1 * 10^3 host-cells and 1 * 10^3 parasites) with a Multidrop Combi dispenser. […] In all wells, the percentage of DMSO never exceeded 0.5%. Plates incubated for four days at 37C, 5% CO2. The substrate used for the assay fluorescence intensity (FLINT) readout was resorufin-beta-D-galactopiranoside (Sigma-Aldrich) at 5uM per well. It was diluted in PBS supplemented with the soft detergent Igepal (Fluka).; type: functional, organism-based, Mus musculus; conditions: Tulahuen, NIH3T3
Trypanosoma cruzi [6] = assay: as §2, with “Trypanosoma cruzi” for “H2C9”, “Amastigotes/Cell.” for “H9c2 Host Cardiomyocytes.”, “number” for “Number”, “amastigotes per cell as infection level measurement.” for “H9c2 Host Cardiomyocytes nuclei to determine drug-related cytotoxicity.”; type: functional, organism-based, Rattus norvegicus; conditions: H9c2, 4 h
Leishmania donovani [7] = assay: as §1, with “Infected” for “THP-1 Host”, “Percent of infected macrophage cells” for “THP-1 cell count”; type: functional, organism-based, Homo sapiens; conditions: THP-1
Leishmania donovani [8] = assay: GSK_TCAKS: pIC50 Leishmania donovani viability assay using fluorescence intensity. Assay plates (1536-well) were prepared by adding 30nL per well of compound. For single shot assay, the final compound concentration was 5uM. […] Briefly, eGFP LdBOB axenic amastigotes were harvested, fixed and counted in a CASY cell counter (Roche-Applied Science). A final concentration of 1.5 * 10^5 cells per well were prepared in amastigote media containing 500 U/mL penicillin/streptomycin (Invitrogen) and 6uL was dispensed to each experimental well using a Multidrop Combi dispenser (Thermo Scientific). 6uL of assay media was dispensed to control columns used as reference for 100% compound response. Following incubation for 72 h at 37C, 5% CO2, 2 uL of resazurin was added to each well at a final concentration of 0.5 mM in phosphate buffered saline (PBS) with IGEPAL (Sigma-Aldrich), 0.05% (v/v).; type: functional, organism-based
[9] = tested on: Trypanosoma brucei brucei; assay: GSK_TCAKS: pIC50 Trypanosoma brucei viability assay using luminiscence. Assay plates (1536-well) were prepared. T. brucei cultures were harvested and counted in a CASY cell counter. A parasite suspension was prepared at a final concentration of 5 * 10^4 cells/mL in complete HMI9 medium and 6uL was dispensed to all wells containing compounds using a Multidrop Combi dispenser. 6uL of HMI9 media with 0.4% DMSO were dispensed to control columns. Plates were incubated for 24 h at 37C, 5% CO2 then tempered for 10 min at room temperature. ATP content was quantified by adding 4 uL of CellTiter-Glo Reagent (Promega) according to the manufacturer's instructions. Luminescence was measured using a ViewLux.; type: functional, organism-based; conditions: Lister 427, CASY
[10] = target: Sterol 14-alpha demethylase (Trypanosoma cruzi (strain CL Brener), UniProt Q7Z1V1); assay: GSK_TCAKS: pIC50 CYP51 from Trypanosoma cruzi.; type: functional
[11] = tested on: Trypanosoma brucei brucei; assay: GSK_TCAKS: pIC50 Trypanosoma brucei viability assay using fluorescence intensity. Assay plates (1536-well) were prepared by dispensing 25nL of compound solution per well using an Echo acoustic dispenser (Labcyte).; type: functional, organism-based; conditions: Lister 427, 2 h
Trypanosoma cruzi [12] = assay: as §2, with “Trypanosoma cruzi” for “H2C9”, “Infected Cells.” for “H9c2 Host Cardiomyocytes.”, “percentage” for “Number”, “infected cells per well as a second infection marker.” for “H9c2 Host Cardiomyocytes nuclei to determine drug-related cytotoxicity.”; type: functional, organism-based, Rattus norvegicus; conditions: H9c2, 4 h

Sterol 14-alpha demethylase, sequence (Q7Z1V1 whole entry): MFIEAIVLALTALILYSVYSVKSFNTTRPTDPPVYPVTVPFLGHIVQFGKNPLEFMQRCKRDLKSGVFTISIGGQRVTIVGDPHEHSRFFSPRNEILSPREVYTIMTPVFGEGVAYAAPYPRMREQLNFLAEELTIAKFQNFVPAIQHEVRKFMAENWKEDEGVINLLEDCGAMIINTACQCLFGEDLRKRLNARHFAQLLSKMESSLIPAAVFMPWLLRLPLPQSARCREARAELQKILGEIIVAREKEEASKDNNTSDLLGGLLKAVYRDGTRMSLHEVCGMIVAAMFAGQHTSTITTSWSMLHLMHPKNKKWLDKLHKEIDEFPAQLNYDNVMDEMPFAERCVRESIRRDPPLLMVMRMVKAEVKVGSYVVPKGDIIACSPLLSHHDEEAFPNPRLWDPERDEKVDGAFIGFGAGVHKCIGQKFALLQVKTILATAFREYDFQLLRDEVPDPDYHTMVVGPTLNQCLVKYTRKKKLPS

SMILES | IC50 at 48 h [1] [µM] | IC50 (Leishmania donovani [2]) [µM] | IC50 (Leishmania donovani [3]) [µM] | IC50 (Trypanosoma cruzi [4]) [µM] | IC50 (Trypanosoma cruzi [5]) [µM] | IC50 (Trypanosoma cruzi [6]) [µM] | IC50 (Leishmania donovani [7]) [µM] | IC50 (Leishmania donovani [8]) [µM] | IC50 [9] [µM] | IC50 [10] [µM] | IC50 [11] [µM] | IC50 (Trypanosoma cruzi [12]) [µM]
Oc1cc(CSc2ccc(Cl)cc2)nc(-c2ccccn2)n1 | > 100 | 3.98 | 2 | 3.16 | 1 | 0.794 | 5.01 | 1.58 | 1 | 63.1 | 0.794 | 1.58
CCc1c(C)nc(-n2nc(C)cc2NC(=O)COc2ccccc2F)[nH]c1=O | > 100 | 3.98 | 5.01 | 2.51 | 0.631 | 0.158 | 7.94 | 0.126 | 0.2 | > 100 | 0.158 | 0.631
COc1ccc(C(=O)[C@H]2C[C@@H]2CN(Cc2ccccn2)Cc2ccccn2)cc1 | > 100 | > 50.1 | 1.26 | 25.1 | 1.58 | 1 | 1.58 | 7.94 | 15.8 | 39.8 | 6.31 | 1.58
CCS(=O)(=O)c1cccc(C(=O)Nc2nc(-c3ccccn3)cs2)c1 | 25.1 | 20 | 3.16 | 3.98 | 1.58 | 1.58 | 3.98 | 1.26 | 0.631 | 63.1 | 0.501 | 2.51
COc1cc2c(cc1OC)[C@H]1[C@@H](C)c3ccc(OC)c(OC)c3CN1CC2 | > 100 | > 50.1 | 15.8 | > 50.1 | 25.1 | 20 | 20 | 2.51 | > 39.8 | 79.4 | 25.1 | > 50.1
CCc1cccc(-n2nc(OCC(=O)NC3CCCC3)c3cccnc32)c1 | > 100 | > 50.1 | 1.26 | > 50.1 | > 50.1 | > 50.1 | 1 | 2.51 | > 39.8 | > 100 | > 39.8 | > 50.1
O=[N+]([O-])c1ccc(-c2nnn(-c3cccnc3)n2)o1 | > 100 | 12.6 | 50.1 | 6.31 | 0.251 | 0.0631 | > 50.1 | 15.8 | 0.501 | 3.98 | 0.316 | > 50.1
O=[N+]([O-])c1ccc(-c2nnn(-c3ccc(Cl)cc3)n2)o1 | > 100 | > 50.1 | > 50.1 | 10 | 0.251 | 0.0794 | > 50.1 | 6.31 | 1 | > 100 | 0.316 | 0.794
COCc1cc(Nc2ccc(Cl)cc2)nc(-c2ccccn2)n1 | 12.6 | 20 | 0.794 | 1.26 | 1.58 | 2.51 | 1.26 | 2.51 | > 39.8 | > 100 | 20 | 5.01
COCc1cc(Nc2ccccc2)nc(-c2ccccn2)n1 | 100 | > 50.1 | 5.01 | 3.98 | 5.01 | 12.6 | 7.94 | 7.94 | > 39.8 | > 100 | > 39.8 | 25.1
CNC(=O)Oc1ccc(C(=O)NCc2ccccc2)cc1OC(=O)NC | > 100 | > 50.1 | > 50.1 | > 50.1 | 31.6 | 39.8 | > 50.1 | > 50.1 | 0.398 | > 100 | 0.126 | 39.8
CC(C)(C)Nc1nc(Nc2ccc3c(c2)CS(=O)(=O)C3)nc2[nH]ccc12 | 31.6 | 20 | 5.01 | 1 | 1 | 20 | 6.31 | 7.94 | 5.01 | 25.1 | 0.794 | 31.6
COc1ccc(CN2C(=O)C(O)(CC(=O)c3ccncc3)c3cc(Br)ccc32)cc1OC (centres undefined) | 39.8 | 39.8 | 20 | 2 | 2.51 | 12.6 | 25.1 | 39.8 | 0.631 | 0.501 | 0.631 | 25.1
CNC(=O)C1Cc2ccccc2N1C(=O)Cc1ccc(F)cc1 (centres undefined) | > 100 | > 50.1 | > 50.1 | > 50.1 | > 50.1 | > 50.1 | > 50.1 | – | 0.251 | > 100 | 0.251 | > 50.1
CC(C)CC(=O)Nc1cc(C2CC2)nn1-c1nc2c(c(=O)[nH]1)CCCC2 | > 100 | 5.01 | 5.01 | 2.51 | 0.794 | 0.126 | 7.94 | – | 0.2 | > 100 | 0.2 | 0.501
Cc1ccc(NC(C)C(=O)Nc2ccc(C#N)cc2)cc1S(=O)(=O)N1CCCCC1 (centres undefined) | 79.4 | 50.1 | 5.01 | > 50.1 | 10 | 7.94 | 10 | 0.794 | 10 | 15.8 | 7.94 | 7.94
O=C(Nc1ccc(C(F)(F)F)cc1)Nc1cccc([N+](=O)[O-])c1 | 10 | 6.31 | 2 | 5.01 | 1 | 0.794 | 2.51 | 7.94 | 2 | 6.31 | 2 | 1.26
CC(C)(C)c1cc(NC2CC2)nc(-c2ccccn2)n1 | > 100 | 25.1 | 1.58 | 0.316 | 1.26 | 1.26 | 2.51 | 1.58 | 2.51 | > 100 | 7.94 | 1.58
